# Measured values: PubChem BioAssay AID1996
# Details: buffer; pH 7.4; 200.0 µM
row,Compound,solubility kinetic [µg/mL]
1,O=C(Nc1ccc(Cl)cc1F)c1cccc2ccccc12,1
2,COc1ccc(C(=O)OCC(=O)c2c[nH]c3ccccc23)c(OC)c1,4.5
3,Cc1cc(C)nc(NC(=O)/C=C/c2ccc(Cl)cc2)n1,42.1
4,Cc1ccc(NC(=O)CCC2CC(C)(C)OC2=O)cc1 (configuration not stated),> 41.3
5,CC(Sc1ncccn1)C(=O)Nc1ccc2c(c1)OCCO2 (configuration not stated),> 47.6
6,O=C(CSc1nccc(=O)[nH]1)NC1CCCCCC1,> 42.2
7,CC(Cc1ccccc1)NC(=O)CC(c1ccccc1)c1ccccc1O (configuration not stated),10.8
8,CC(C)c1ccc(Nc2nc(Cl)nc(NCc3ccco3)n2)cc1,0.6
9,Clc1ccc(C2=CSC3=NCCN23)c(Cl)c1.[Br-],> 52.7
10,Cc1ccc(C(=O)NCCNC(=O)COc2ccc(C)c(C)c2)cn1,49.2
11,Cc1ccccc1OCCC(=O)OCC(=O)NC1CC1,> 41.6
12,CCN(C(=O)COc1ccccc1)C1CCCCC1,37.4
13,CCC(C)NC(=O)[C@@H]1CSC2c3ccccc3C(=O)N21 (some centres not stated),> 43.6
14,Cc1c(C(=O)C(=O)NCC2CCCO2)c2ccccc2n1C (configuration not stated),> 45.1
15,Nc1nc(SCC(=O)Nc2cccc(F)c2)n[nH]1,> 40.1
16,C#CCOC(=O)C[N+](C)(C)CC#Cc1ccccc1.[Cl-],43.1
17,Cc1cc(Br)cc(Cl)c1OC(=O)c1cnccn1,47.4
18,O=C(CN1C(=O)NC2(CCCCC2)C1=O)Nc1ccc(F)cc1,> 47.9
19,COc1ccc2[nH]c(C(=O)N3CCN(Cc4ccccc4)CC3)cc2c1OC,51.8
20,Oc1ccc2ccccc2c1CNc1ccc(Br)cn1,1.9
21,COc1cccc(C(=O)NCCNC(=O)c2cnccn2)c1,30.9
22,Cc1ccc(-c2cnco2)cc1,< 0.3

row,Compound,solubility kinetic [µg/mL]
1,CC(C)(C)c1cc(NS(=O)(=O)c2cccs2)no1,30.8
2,O=C(COC(=O)CNC(=O)c1ccccc1)NCCCc1ccccc1,52.3
3,O=C(NC1CCC1)C1CCC(=O)N(Cc2ccccc2F)C1 (configuration not stated),> 45.7
4,COCC(C)n1c(SCC(=O)NC2CCCCC2C)nc2ccccc2c1=O (configuration not stated),> 60.5
5,O=C(Nc1ccccc1O)/C(=C\c1ccccc1)NC(=O)c1ccccc1,14.9
6,CCOc1ncccc1C(=O)NC(C)CCc1ccccc1 (configuration not stated),41
7,CSc1ccccc1C(=O)C1CCCN(S(=O)(=O)N(C)C)C1 (configuration not stated),> 51.4
8,COc1ccc(C(=O)NCCNC(=O)c2ccc(OC)cc2)cc1,2.9
9,CCOCCCNC(=O)c1c[nH]c2cc(OC)ccc2c1=O,> 45.7
10,Cc1cccc(NC(=O)c2cc([N+](=O)[O-])ccc2N2CCCCC2)n1,0.4
11,O=c1cc(O)c2ccccc2n1Cc1ccccc1F,> 40.4
12,Fc1cccc(/C=N/Nc2nccnc2Cl)c1,> 37.6
13,Cc1cccc(C(=O)Nc2cccc3c2CCCC3)c1,0.8
14,O=C(NCCCN1CCOCC1)C(=O)NCc1ccccc1,> 45.8
15,CCOc1ccc(S(=O)(=O)NCc2ccccn2)c(C)c1C,> 48.1
16,CC1CN(C(=O)c2cccc(Oc3ccccc3)c2)CC(C)O1 (configuration not stated),> 46.7
17,O=C(COC(=O)[C@@H]1CCCN1C(=O)c1cccs1)Nc1cccc([N+](=O)[O-])c1,2.8
18,Cc1ccccc1NC(=O)NC1CCCCCCC1,1.5
19,O=C1C2C3C=CC(CC3)C2C(=O)N1c1cccc(Br)c1 (configuration not stated),2
20,Fc1ccc(SCCc2ccccn2)cc1,7.1
21,O=C(Nc1ccc2nc(N3CCOCC3)sc2c1)c1ccccc1,7.2
22,Cc1ccc(-n2c(C)cc(/C=C3\SC(=O)NC3=O)c2C)cc1,< 0.3

row,Compound,solubility kinetic [µg/mL]
1,COc1ccc(N=C(C)c2c(O)[nH]c(=O)[nH]c2=O)cc1,5
2,O=C(N/C(=C\c1ccccc1)C(=O)N1CCCCC1)c1ccco1,42.4
3,CN1CCN(NC(=O)CC(C)(C)C)CC1,> 32
4,COc1cc(/C=C2/CC(C)OC2=O)c([N+](=O)[O-])cc1OC (configuration not stated),> 44
5,Cc1ccc(C(=O)NC(=S)Nc2ccccc2C)cc1,1.4
6,OC(CN1CCc2ccccc2C1)c1ccccc1 (configuration not stated),> 38
7,CCOC(=O)c1cnc2cc(F)c(F)cc2c1N1CCN(C)CC1,30.7
8,O=C(NC1CC1)C1CCN(C(=O)c2ccc(Cl)cc2)CC1,45.8
9,CC(=O)c1c(C(C)=O)c(C)n(-c2cccc3cccnc23)c1C,> 46
10,Cc1ccc(C)c(C(=O)CN2Cc3ccccc3C2=O)c1,6.1
11,Cc1nc(-c2cccc(NC(=O)Cc3ccccc3)c2)cs1,30.1
12,FC(F)(F)c1ccnc(NCc2ccco2)n1,9.2
13,CC(=O)N1CCN(CC(=O)Nc2cc(S(=O)(=O)N3CCCCC3)ccc2C)CC1,> 63.4
14,CC(C)(C#N)NC(=O)C(=O)c1c(-c2ccccc2)cc2ccccn12,> 49.7
15,CCN(Cc1ccccc1)C(=O)CSc1nncn1C,> 43.6
16,CCCC(=O)Nc1ccc(-c2nc3ncccc3o2)cc1,2.1
17,O=C(COC(=O)c1ccc(Br)o1)Nc1ccc(F)cc1[N+](=O)[O-],8.2
18,Cc1ccc(S(=O)(=O)N2CCN(C)CC2)cc1,> 38.2
19,COc1ccc(C(=O)COC(=O)c2ccc(Cl)nc2)cc1OC,10.3
20,O=C(COc1cccnc1[N+](=O)[O-])Nc1ccc(F)cc1,11.5
21,Cc1cc(N2Cc3ccccc3C2)ccc1C=O,7.1
22,c1ccc(-n2cnc3cc(NCc4ccco4)ccc32)cc1,35.5

row,Compound,solubility kinetic [µg/mL]
1,CCN(C(=O)CSc1ncccc1C(=O)O)C1CCCCC1,> 48.4
2,O=C(CN1C(=O)S/C(=C\c2ccccn2)C1=O)Nc1ccccc1,1.5
3,Cc1ccsc1C(=O)Nc1nc2ccccc2[nH]1,2
4,CC(C)CC1NC(=O)N(CC(=O)Nc2cc([N+](=O)[O-])ccc2F)C1=O (configuration not stated),> 52.8
5,Cc1cc(NC(=O)c2ccc3nccnc3c2)ccc1Br,4.5
6,COC(=O)Cc1ccc(NC(=S)NCCO)cc1,39.3
7,CCOC(=O)C(C(=O)N(C)Cc1ccccc1)C1CCCCC1 (configuration not stated),41.8
8,Cc1cc(C(=O)OCC(=O)NCc2ccccc2)c(C)o1,> 43.1
9,O=C(CN1CCN(S(=O)(=O)c2ccccc2F)CC1)N1CCc2ccccc2C1,12.8
10,O=C(CN1C(=O)NC2(CCc3ccccc32)C1=O)c1ccccc1 (configuration not stated),40.1
11,CSc1nsc(SCC(=O)Nc2ccc(OC(C)=O)cc2)n1,2.8
12,Cc1ccc(OCC(=O)N2CC(C)OC(C)C2)c([N+](=O)[O-])n1 (configuration not stated),> 46.4
13,COc1ccc(NC(=S)NC2CCCCC2)c(OC)c1,> 44.2
14,CCOC(=O)c1c(O)c2cccc3c2n(c1=O)CC3,> 38.9
15,O=S(=O)(/N=C(/Nc1cccnc1)c1ccccc1)c1ccc(F)cc1F,> 56
16,CC(C)(C)C(=O)COC(=O)C1=NN(c2ccccc2)C(=O)CC1,> 47.5
17,O=C(O)CSc1nccc2ccccc12,> 32.9
18,Cc1ccc2nc(COc3ccc(Cl)cc3)cc(=O)n2c1,0.5
19,C#CCOc1c(Cl)cc(/C=C2/C(=O)ON=C2C)cc1OCC,39.4
20,CC(=O)Nc1ccc2sc(C)nc2c1,> 30.9
21,CN(C)CCOC1c2ccccc2-c2ccccc21.O=C(O)C(=O)O,> 51.5
